Tested on: 485176-168-R4-J1-PDC complex spheroid growth
Experiment: Anticancer human tumor 485176-168-R4-J1-PDC patient-derived pancreatic adenocarcinoma cell line growth inhibition [RAS]
Conditions: for IC50: curve of first compound; for viability, T/C: stronger effect = lower value
Summary of the method: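 Multi-cell-type spheroids: tumor cells plus HUVEC endothelial cells and mesenchymal stem cells. RAS-pathway inhibitors were combined with targeted agents, each dosed in half-log steps down from clinical Cmax, or from 10 microM when Cmax was unknown.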

[1] = second compound 0.000949 µM, first compound 0.00316 µM
[2] = second compound 0.000949 µM, first compound 0.01 µM
[3] = second compound 0.000949 µM, first compound 0.0316 µM
[4] = second compound 0.000949 µM, first compound 0.1 µM
[5] = second compound 0.000949 µM, first compound 0.316 µM
[6] = second compound 0.000949 µM, first compound 1 µM
[7] = second compound 0.003 µM, first compound 0.00316 µM
[8] = second compound 0.003 µM, first compound 0.01 µM
[9] = second compound 0.003 µM, first compound 0.0316 µM
[10] = second compound 0.003 µM, first compound 0.1 µM
[11] = second compound 0.003 µM, first compound 0.316 µM
[12] = second compound 0.003 µM, first compound 1 µM
[13] = second compound 0.00949 µM, first compound 0.00316 µM
[14] = second compound 0.00949 µM, first compound 0.01 µM
[15] = second compound 0.00949 µM, first compound 0.0316 µM
[16] = second compound 0.00949 µM, first compound 0.1 µM
[17] = second compound 0.00949 µM, first compound 0.316 µM
[18] = second compound 0.00949 µM, first compound 1 µM
[19] = second compound 0.03 µM, first compound 0.00316 µM
[20] = second compound 0.03 µM, first compound 0.01 µM
[21] = second compound 0.03 µM, first compound 0.0316 µM
[22] = second compound 0.03 µM, first compound 0.1 µM
[23] = second compound 0.03 µM, first compound 0.316 µM
[24] = second compound 0.03 µM, first compound 1 µM
[25] = second compound 0.0949 µM, first compound 0.00316 µM
[26] = second compound 0.0949 µM, first compound 0.01 µM
[27] = second compound 0.0949 µM, first compound 0.0316 µM
[28] = second compound 0.0949 µM, first compound 0.1 µM
[29] = second compound 0.0949 µM, first compound 0.316 µM
[30] = second compound 0.0949 µM, first compound 1 µM
[31] = second compound 0.3 µM, first compound 0.00316 µM
[32] = second compound 0.3 µM, first compound 0.01 µM
[33] = second compound 0.3 µM, first compound 0.0316 µM
[34] = second compound 0.3 µM, first compound 0.1 µM
[35] = second compound 0.3 µM, first compound 0.316 µM
[36] = second compound 0.3 µM, first compound 1 µM
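Further: spheroids exposed to compounds for seven days before readout.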
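Wherever viability, T/C is given: luminescence viability expressed relative to DMSO vehicle wells set as 100%.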

CCN1CCN(Cc2ccc(Nc3ncc(F)c(-c4cc(F)c5nc(C)n(C(C)C)c5c4)n3)nc2)CC1 + CCn1c(-c2cc(N3CCN(C)CC3)cnc2C(C)OC)c2c3cc(ccc31)-c1csc(n1)CC(NC(=O)C1CC1C)C(=O)N1CCCC(N1)C(=O)OCC(C)(C)C2
IC50 (second compound 0.000949 µM): > 1 µM
IC50 (second compound 0.003 µM): > 1 µM
IC50 (second compound 0.00949 µM): 0.756 µM
IC50 (second compound 0.03 µM): 0.938 µM
IC50 (second compound 0.0949 µM): 0.929 µM
IC50 (second compound 0.3 µM): > 1 µM
viability, T/C [1]: 78.7%
viability, T/C [2]: 80.9%
viability, T/C [3]: 81%
viability, T/C [4]: 67.4%
viability, T/C [5]: 73%
viability, T/C [6]: 54.8%
viability, T/C [7]: 84.9%
viability, T/C [8]: 76.5%
viability, T/C [9]: 85.2%
viability, T/C [10]: 66.9%
viability, T/C [11]: 62.7%
viability, T/C [12]: 53.8%
viability, T/C [13]: 75.3%
viability, T/C [14]: 85.8%
viability, T/C [15]: 73.4%
viability, T/C [16]: 70.2%
viability, T/C [17]: 63%
viability, T/C [18]: 45.9%
viability, T/C [19]: 77.5%
viability, T/C [20]: 68.1%
viability, T/C [21]: 75.3%
viability, T/C [22]: 58.3%
viability, T/C [23]: 63.8%
viability, T/C [24]: 47.9%
viability, T/C [25]: 64.7%
viability, T/C [26]: 74.7%
viability, T/C [27]: 59.2%
viability, T/C [28]: 55.1%
viability, T/C [29]: 51.6%
viability, T/C [30]: 52%
viability, T/C [31]: 54.9%
viability, T/C [32]: 76.6%
viability, T/C [33]: 70.9%
viability, T/C [34]: 65.3%
viability, T/C [35]: 53.5%
viability, T/C [36]: 51%

NC1c2ccccc2OC12CCN(c1cnc3c(N4CCCc5ncccc54)n[nH]c3n1)CC2 (stereo unspecified) + CCn1c(-c2cc(N3CCN(C)CC3)cnc2C(C)OC)c2c3cc(ccc31)-c1csc(n1)CC(NC(=O)C1CC1C)C(=O)N1CCCC(N1)C(=O)OCC(C)(C)C2
IC50 (second compound 0.000949 µM): > 10 µM
IC50 (second compound 0.003 µM): > 10 µM
IC50 (second compound 0.00949 µM): > 10 µM
IC50 (second compound 0.03 µM): > 10 µM
IC50 (second compound 0.0949 µM): > 10 µM
IC50 (second compound 0.3 µM): > 10 µM
viability, T/C [3]: 86.4%
viability, T/C [4]: 88.8%
viability, T/C [5]: 97.4%
viability, T/C [6]: 85%
viability, T/C (second compound 0.000949 µM, first compound 3.16 µM): 89.2%
viability, T/C (second compound 0.000949 µM, first compound 10 µM): 79.1%
viability, T/C [9]: 93.1%
viability, T/C [10]: 80.9%
viability, T/C [11]: 76.7%
viability, T/C [12]: 97.9%
viability, T/C (second compound 0.003 µM, first compound 3.16 µM): 91.8%
viability, T/C (second compound 0.003 µM, first compound 10 µM): 81.4%
viability, T/C [15]: 81.7%
viability, T/C [16]: 93.2%
viability, T/C [17]: 76.2%
viability, T/C [18]: 81.1%
viability, T/C (second compound 0.00949 µM, first compound 3.16 µM): 81.9%
viability, T/C (second compound 0.00949 µM, first compound 10 µM): 67.2%
viability, T/C [21]: 83%
viability, T/C [22]: 98%
viability, T/C [23]: 83.4%
viability, T/C [24]: 104%
viability, T/C (second compound 0.03 µM, first compound 3.16 µM): 91%
viability, T/C (second compound 0.03 µM, first compound 10 µM): 79%
viability, T/C [27]: 80.8%
viability, T/C [28]: 82%
viability, T/C [29]: 76.9%
viability, T/C [30]: 85.2%
viability, T/C (second compound 0.0949 µM, first compound 3.16 µM): 100%
viability, T/C (second compound 0.0949 µM, first compound 10 µM): 76.9%
viability, T/C [33]: 87.4%
viability, T/C [34]: 86.1%
viability, T/C [35]: 69%
viability, T/C [36]: 80.1%
viability, T/C (second compound 0.3 µM, first compound 3.16 µM): 83.1%
viability, T/C (second compound 0.3 µM, first compound 10 µM): 75.1%

O=C(c1ccc(F)c(F)c1Nc1ccc(I)cc1F)N1CC(O)([C@@H]2CCCCN2)C1 + CCn1c(-c2cccnc2C(C)OC)c2c3cc(ccc31)N1CCOC(CC(NC(=O)C(C(C)C)N(C)C(=O)C3(F)CCN(C(=O)C#CC(C)(C)N(C)C)CC3)C(=O)N3CCCC(N3)C(=O)OCC(C)(C)C2)C1
IC50 (second compound 0.000949 µM): 0.349 µM
IC50 (second compound 0.003 µM): 0.409 µM
IC50 (second compound 0.00949 µM): 0.154 µM
IC50 (second compound 0.03 µM): 0.235 µM
IC50 (second compound 0.0949 µM): 0.142 µM
IC50 (second compound 0.3 µM): 0.0326 µM
viability, T/C [1]: 90.4%
viability, T/C [2]: 79%
viability, T/C [3]: 86.3%
viability, T/C [4]: 61.4%
viability, T/C [5]: 53.8%
viability, T/C [6]: 39.9%
viability, T/C [7]: 79.3%
viability, T/C [8]: 65.8%
viability, T/C [9]: 73.2%
viability, T/C [10]: 58%
viability, T/C [11]: 50.9%
viability, T/C [12]: 43.7%
viability, T/C [13]: 77.8%
viability, T/C [14]: 85.8%
viability, T/C [15]: 68.6%
viability, T/C [16]: 55%
viability, T/C [17]: 43.4%
viability, T/C [18]: 36%
viability, T/C [19]: 97.1%
viability, T/C [20]: 89.8%
viability, T/C [21]: 69.3%
viability, T/C [22]: 51.9%
viability, T/C [23]: 56.7%
viability, T/C [24]: 36.7%
viability, T/C [25]: 89.7%
viability, T/C [26]: 64.1%
viability, T/C [27]: 68.6%
viability, T/C [28]: 53.6%
viability, T/C [29]: 44.2%
viability, T/C [30]: 32.3%
viability, T/C [31]: 67.2%
viability, T/C [32]: 70.8%
viability, T/C [33]: 50.2%
viability, T/C [34]: 45.6%
viability, T/C [35]: 40%
viability, T/C [36]: 39.5%

— PubChem BioAssay AID2060906 (Molecular Pharmacology Branch, DTP, NCI, 2025)
